Measured values taken from patent publication US20020137929A1, “1 - (3-heterocyclylphenyl) isothiourea, -isourea, -guanidine and -amidine herbicidal agents” (Intellectual Property Department, BASF Aktiengesellschaft, priority 1998, published 2002).

Key:
[1] = tested on: GLXMAW (Soybean, Williams); test: Preemergence herbicidal evaluation; format: in vivo, Glycine max, (L.) Merr. cv Williams; settings: rated 4-5 weeks after treatment
Method in brief: (§1)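 Test compound, dissolved in aqueous acetone, was sprayed over planted soil cups at an equivalent of about 0.0156 to 0.500 kg/ha; seeds had been mixed with potting soil. Greenhouse growth followed, with visual 0-9 scoring of injury at four to five weeks.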

[2] = tested on: ZEAMX (Corn, Field); test: Postemergence herbicidal evaluation; format: in vivo, Zea mays; settings: postemergence
Method in brief: (§2)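 Scores (0–9) reflect plant stand, vigor, malformation, size, chlorosis and general appearance relative to control, read 4 to 5 weeks after treatment and averaged where tests were repeated. Application: about 0.0156–0.500 kg/ha sprayed at 40 psi onto two-week seedlings.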

[3] = tested on: IPOHE (Morningglory, Ivyleaf); test: Postemergence herbicidal evaluation; format: in vivo, Ipomoea hederacea; settings: postemergence
Method in brief: as §2

[4] = tested on: SETVI (Foxtail, Green); test: Postemergence herbicidal evaluation; format: in vivo, Setaria viridis; settings: postemergence
Method in brief: as §2

[5] = tested on: IPOHE (Morningglory, Ivyleaf); test: Preemergence herbicidal evaluation; format: in vivo, Ipomoea hederacea; settings: rated 4-5 weeks after treatment
Method in brief: as §1

[6] = tested on: ZEAMX (Corn, Field); test: Preemergence herbicidal evaluation; format: in vivo, Zea mays; settings: rated 4-5 weeks after treatment
Method in brief: as §1

[7] = tested on: ORYSAT (Rice, Tebonnet); test: Postemergence herbicidal evaluation; format: in vivo, Oryza sativa, (L.) Tebonnet; settings: postemergence
Method in brief: as §2

[8] = tested on: CASOB (Sicklepod); test: Preemergence herbicidal evaluation; format: in vivo, Cassia obtusifolia; settings: rated 4-5 weeks after treatment
Method in brief: as §1

[9] = tested on: CYPSE (Flatsedge); test: Postemergence weed control under flooded paddy conditions; format: in vivo, Cyperus serotinus; settings: postemergence weeds, 3-4 weeks after treatment
Method in brief: (§3)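 Herbicidal effect is judged by eye on a 0–9 scale versus control, 3–4 weeks after dosing. Dosing is into flood water kept 1.5–3 cm over the soil, at about 0.0313–0.500 kg/ha in aqueous/acetone 50/50 v/v, on 3–5 cm weeds and 1.5–2.5-leaf rice seedlings.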

[10] = tested on: ABUTH (Velvetleaf); test: Preemergence herbicidal evaluation; format: in vivo, Abutilon theophrasti; settings: rated 4-5 weeks after treatment
Method in brief: as §1

[11] = tested on: TRZAWR (Wheat, Winter, cv Riband); test: Preemergence herbicidal evaluation; format: in vivo, Triticum aestivum; settings: rated 4-5 weeks after treatment
Method in brief: as §1

[12] = tested on: ECHCG (Barnyardgrass); test: Postemergence herbicidal evaluation; format: in vivo, Echinochloa crus-galli; settings: postemergence
Method in brief: as §2

[13] = tested on: ABUTH (Velvetleaf); test: Postemergence herbicidal evaluation; format: in vivo, Abutilon theophrasti; settings: postemergence
Method in brief: as §2

[14] = tested on: CYPIR (Rice Flatsedge); test: Postemergence weed control under flooded paddy conditions; format: in vivo, Cyperus iria; settings: postemergence weeds, 3-4 weeks after treatment
Method in brief: as §3

[15] = tested on: CHEAL (Lambsquarters, Common); test: Postemergence herbicidal evaluation; format: in vivo, Chenopodium album; settings: postemergence
Method in brief: as §2

[16] = tested on: CHEAL (Lambsquarters, Common); test: Preemergence herbicidal evaluation; format: in vivo, Chenopodium album; settings: rated 4-5 weeks after treatment
Method in brief: as §1

[17] = tested on: ECHCG (Barnyardgrass); test: Preemergence herbicidal evaluation; format: in vivo, Echinochloa crus-galli; settings: rated 4-5 weeks after treatment
Method in brief: as §1

SMILES: CCC1SC(=Nc2cc(-n3c(=O)cc(C(F)(F)F)n(C)c3=O)c(F)cc2Cl)N(C)C1=O (stereo not shown) [Compound 10]
- GLXMAW preemergence herbicidal rating ([1]; rate 0.0156 kg/ha): 2.0
- GLXMAW preemergence herbicidal rating ([1]; rate 0.0313 kg/ha): 2.3
- GLXMAW preemergence herbicidal rating ([1]; rate 0.0625 kg/ha): 3.7
- GLXMAW preemergence herbicidal rating ([1]; rate 0.1250 kg/ha): 6.7
- GLXMAW preemergence herbicidal rating ([1]; rate 0.2500 kg/ha): 7.0
- ZEAMX herbicidal rating ([2]; rate 0.0156 kg/ha): 4.3
- ZEAMX herbicidal rating ([2]; rate 0.0313 kg/ha): 5.3
- ZEAMX herbicidal rating ([2]; rate 0.0625 kg/ha): 5.3
- ZEAMX herbicidal rating ([2]; rate 0.1250 kg/ha): 5.3
- IPOHE herbicidal rating ([3]; rate 0.0156 kg/ha): 3.0
- IPOHE herbicidal rating ([3]; rate 0.0313 kg/ha): 7.0
- IPOHE herbicidal rating ([3]; rate 0.0625 kg/ha): 9.0
- IPOHE herbicidal rating ([3]; rate 0.1250 kg/ha): 8.0
- SETVI herbicidal rating ([4]; rate 0.0156 kg/ha): 0.0
- SETVI herbicidal rating ([4]; rate 0.0313 kg/ha): 0.0
- SETVI herbicidal rating ([4]; rate 0.0625 kg/ha): 1.0
- SETVI herbicidal rating ([4]; rate 0.1250 kg/ha): 3.0
- IPOHE preemergence herbicidal rating ([5]; rate 0.0156 kg/ha): 2.0
- IPOHE preemergence herbicidal rating ([5]; rate 0.0313 kg/ha): 3.0
- IPOHE preemergence herbicidal rating ([5]; rate 0.0625 kg/ha): 5.3
- IPOHE preemergence herbicidal rating ([5]; rate 0.1250 kg/ha): 8.3
- IPOHE preemergence herbicidal rating ([5]; rate 0.2500 kg/ha): 9.0
- ZEAMX preemergence herbicidal rating ([6]; rate 0.0156 kg/ha): 4.7
- ZEAMX preemergence herbicidal rating ([6]; rate 0.0313 kg/ha): 6.7
- ZEAMX preemergence herbicidal rating ([6]; rate 0.0625 kg/ha): 7.0
- ZEAMX preemergence herbicidal rating ([6]; rate 0.1250 kg/ha): 7.3
- ZEAMX preemergence herbicidal rating ([6]; rate 0.2500 kg/ha): 8.0
- ORYSAT herbicidal rating ([7]; rate 0.0156 kg/ha): 1.8
- ORYSAT herbicidal rating ([7]; rate 0.0313 kg/ha): 2.5
- ORYSAT herbicidal rating ([7]; rate 0.0625 kg/ha): 2.5
- ORYSAT herbicidal rating ([7]; rate 0.1250 kg/ha): 3.0
- CASOB preemergence herbicidal rating ([8]; rate 0.0156 kg/ha): 0.0
- CASOB preemergence herbicidal rating ([8]; rate 0.0313 kg/ha): 0.7
- CASOB preemergence herbicidal rating ([8]; rate 0.0625 kg/ha): 0.7
- CASOB preemergence herbicidal rating ([8]; rate 0.1250 kg/ha): 1.3
- CASOB preemergence herbicidal rating ([8]; rate 0.2500 kg/ha): 3.3
- Herbicidal rating CYPSE ([9]; rate 0.0313 kg/ha): 0.0
- Herbicidal rating CYPSE ([9]; rate 0.0625 kg/ha): 0.0
- Herbicidal rating CYPSE ([9]; rate 0.1250 kg/ha): 0.0
- Herbicidal rating CYPSE ([9]; rate 0.2500 kg/ha): 0.0
- ABUTH preemergence herbicidal rating ([10]; rate 0.0156 kg/ha): 5.5
- ABUTH preemergence herbicidal rating ([10]; rate 0.0313 kg/ha): 8.0
- ABUTH preemergence herbicidal rating ([10]; rate 0.0625 kg/ha): 9.0
- ABUTH preemergence herbicidal rating ([10]; rate 0.1250 kg/ha): 9.0
- ABUTH preemergence herbicidal rating ([10]; rate 0.2500 kg/ha): 9.0
- TRZAWR preemergence herbicidal rating ([11]; rate 0.0156 kg/ha): 1.0
- TRZAWR preemergence herbicidal rating ([11]; rate 0.0313 kg/ha): 3.5
- TRZAWR preemergence herbicidal rating ([11]; rate 0.0625 kg/ha): 5.5
- TRZAWR preemergence herbicidal rating ([11]; rate 0.1250 kg/ha): 6.5
- TRZAWR preemergence herbicidal rating ([11]; rate 0.2500 kg/ha): 7.5
- ECHCG herbicidal rating ([12]; rate 0.0156 kg/ha): 0.0
- ECHCG herbicidal rating ([12]; rate 0.0313 kg/ha): 0.0
- ECHCG herbicidal rating ([12]; rate 0.0625 kg/ha): 0.0
- ECHCG herbicidal rating ([12]; rate 0.1250 kg/ha): 1.0
- ABUTH herbicidal rating ([13]; rate 0.0156 kg/ha): 9.0
- ABUTH herbicidal rating ([13]; rate 0.0313 kg/ha): 6.5
- ABUTH herbicidal rating ([13]; rate 0.0625 kg/ha): 7.0
- ABUTH herbicidal rating ([13]; rate 0.1250 kg/ha): 9.0
- Herbicidal rating CYPIR ([14]; rate 0.0313 kg/ha): 0.0
- Herbicidal rating CYPIR ([14]; rate 0.0625 kg/ha): 0.0
- Herbicidal rating CYPIR ([14]; rate 0.1250 kg/ha): 2.0
- Herbicidal rating CYPIR ([14]; rate 0.2500 kg/ha): 4.0
- CHEAL herbicidal rating ([15]; rate 0.0156 kg/ha): 7.0
- CHEAL herbicidal rating ([15]; rate 0.0313 kg/ha): 7.0
- CHEAL herbicidal rating ([15]; rate 0.0625 kg/ha): 9.0
- CHEAL herbicidal rating ([15]; rate 0.1250 kg/ha): 9.0
- CHEAL preemergence herbicidal rating ([16]; rate 0.0156 kg/ha): 9.0
- CHEAL preemergence herbicidal rating ([16]; rate 0.0313 kg/ha): 9.0
- CHEAL preemergence herbicidal rating ([16]; rate 0.0625 kg/ha): 9.0
- CHEAL preemergence herbicidal rating ([16]; rate 0.1250 kg/ha): 9.0
- CHEAL preemergence herbicidal rating ([16]; rate 0.2500 kg/ha): 9.0
- ECHCG preemergence herbicidal rating ([17]; rate 0.0156 kg/ha): 2.0
- ECHCG preemergence herbicidal rating ([17]; rate 0.0313 kg/ha): 4.0
- ECHCG preemergence herbicidal rating ([17]; rate 0.0625 kg/ha): 7.0
- ECHCG preemergence herbicidal rating ([17]; rate 0.1250 kg/ha): 9.0
- ECHCG preemergence herbicidal rating ([17]; rate 0.2500 kg/ha): 9.0
